{"source": "patent US6838560B1", "about": "“Process for manufacturing morpholino-nucleotides, and use thereof for the analysis of and labelling of nucleic acid sequences” (priority 1999, dated 2005)", "format_in_all_cases": "biochemical", "key": {"[1]": {"target": "T1, Klenow exonuclease-free polymerase (Escherichia coli, UniProt P00582, D355A/E357A)", "T1 construct": "purchased Amersham Life Science", "T1 sequence (P00582 324-928 D355A/E357A)": "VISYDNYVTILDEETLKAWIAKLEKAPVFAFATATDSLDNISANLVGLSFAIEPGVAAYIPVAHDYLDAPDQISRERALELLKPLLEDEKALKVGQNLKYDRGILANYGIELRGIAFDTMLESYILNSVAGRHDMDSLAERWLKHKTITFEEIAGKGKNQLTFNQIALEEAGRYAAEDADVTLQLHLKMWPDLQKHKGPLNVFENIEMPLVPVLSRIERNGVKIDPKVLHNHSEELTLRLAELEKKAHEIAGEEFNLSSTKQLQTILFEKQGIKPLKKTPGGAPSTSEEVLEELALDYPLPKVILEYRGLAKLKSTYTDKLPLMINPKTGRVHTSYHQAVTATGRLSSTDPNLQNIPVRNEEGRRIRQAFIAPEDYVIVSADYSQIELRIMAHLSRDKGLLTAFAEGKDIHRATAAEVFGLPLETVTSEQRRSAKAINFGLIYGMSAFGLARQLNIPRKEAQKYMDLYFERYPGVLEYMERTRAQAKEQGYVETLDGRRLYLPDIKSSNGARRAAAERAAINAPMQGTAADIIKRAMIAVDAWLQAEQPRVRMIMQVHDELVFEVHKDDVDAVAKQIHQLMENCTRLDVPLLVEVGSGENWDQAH", "experiment": "Template-dependent 3' labelling / primer A extension, polyacrylamide gel", "conditions": "for enzymatic incorporation at 3' end of primer A: MATPP 400, 200, 50 μM, MATPPF 2.5 mM, 400, 200, 50 μM, 37° C., 10 minutes; for interruption of chain elongation after incorporation: with dGTP and dTTP (solution 2P), FIG. 4", "procedure": "(§1) Use of morpholino A putrescine (MATPP) and morpholino A fluorescein (MATPPF) for the template-dependent 3′ labelling of DNA fragments; test of enzymatic incorporation of these compounds by three polymerases (Taq, Klenow, Klenow Exo Free) and a reverse transcriptase.\n(§2) These two nucleoside triphosphate derivatives are tested in enzymatic incorporation to label an oligonucleotide 13 bases long at its 3′ end. This labelling is referred to as “template-dependent” since the enzymes used need the complementary strand to extend the oligonucleotide according to the Watson & Crick rules. Sequence A (17870 pmol/mL) studied and also its complementary target C (16128 pmol/mL) are given in the figure below: • Target C: 3′-TGCCAACCAACCCCACCTCAACCTCTG-5′ (SEQ ID NO: 7) • Primer A: 5′-ACG GTT GGT TGG G (13 bp) (SEQ ID NO: 8) • Expected fragments: 5′-ACG GTT TGG GGT GGA (18 bp) (SEQ ID NO: 9) • and lengths (bp): 5′-ACGGTTGGTTGGGGTGGAGTTGGA (24 bp)(SEQ ID NO: 10) 5′-ACGGTTGGTTGGGGTGGAGTTGGAGA (26 bp) (SEQ ID NO: 11) 5′-ACGGTTGGTTGGGGTGGAGTTGGAGAC (27 bp) (SEQ ID NO: 12)\n(§3) Three enzymes are used for this labelling: Taq DNA polymerase (Boehringer Mannheim), the Klenow fragment (Boehringer Mannheim) and the Klenow exonuclease-free polymerase (Amersham Life Science). The primer is labelled at its 5′ end by incorporation of ^32P phosphate with the “Ready to go” T4 Polynucleotide Kinase kit (Pharmacia Biotech). The radiolabelled primer is noted A*.\n(§4) The reaction buffers for the three enzymes are prepared for 10 reactions:\n(§5) The enzymes are then diluted in the following manner, for 10 reactions: • Taq (5U/μL): 10×0.1 μL of Taq+10×15.5 μL of H2O • Klenow (20U/μL): 10×0.1 μL of Klenow+10×15.5 μL of H2O • Klenow Exo Free (5U/μL): 10×0.1 μL of Klenow Exo Free+10×15.5 μL of H2O.\n(§6) Solutions containing the normal nucleoside triphosphates are also prepared: • Solution “2P” composed of a mixture of dGTP and dTTP each at 0.1 mM • Solution “4P” composed of a mixture of dATP, dCTP, dGTP and dTTP each at 0.1 mM\n(§7) The implementation reactions are described in Table 14 below:\n(§8) The morpholino A putrescine is thus tested at three concentrations: 400, 200 and 50 μM, while the morpholino A fluorescein is reacted at 2.5 mM, 400, 200 and 50 μM.\n(§9) Before adding the enzyme, the mixture is denatured at 94° C. for 5 minutes. It is then left to return to ambient temperature in order for the hybridization to take place. The elongation is carried out at 70° C. for the Taq and at 37° C. for the two Klenow fragments, and for 10 minutes. Finally, the medium is again denatured with a formamide solution and heating at 90° C. for 5 minutes, after which it is placed on a polyacrylamide gel. The separation is carried out by electrophoresis at 2000 V. The gel is read using a Phosphorimager; the results obtained are given in FIG. 4.\n(§10) In this figure, the lanes 1 serve as migration control for the labelled oligonucleotide A. This oligonucleotide has a length of 13 bases (13-mer). Lanes 2, 3 and 4 allow the elongation of the oligonucleotide A and the incorporation of the morpholino A putrescine to be monitored. Under these conditions, only the nucleotides dGTP and dTTP (solution “2P”) were added and can be used by the enzyme to carry out the extention of the primer. The presence of the morpholino A putrescine in the reaction medium allows its incorporation at the level of base 18. A control was carried out, placing in the medium only the “2P” mixture; in this case, the enzyme continues its extension up to the 17th base since it has no adenosine derivative to continue its polymerization. […] Reactions 5 to 8 correspond to the same reactions with morpholino A fluorescein. […] It is noted, however, for the two Klenow fragments, that there was occasionally incorporation of another base (G or T) in place of the morpholino derivative. Specifically, in these cases, elongation products corresponding to the 18-mer and 24-mer are found. […]"}, "Klenow fragment": {"target": "T2, Klenow fragment (Escherichia coli, UniProt P00582)", "T2 construct": "the Klenow fragment (Boehringer Mannheim); purchased Boehringer Mannheim", "T2 sequence (P00582 324-928)": "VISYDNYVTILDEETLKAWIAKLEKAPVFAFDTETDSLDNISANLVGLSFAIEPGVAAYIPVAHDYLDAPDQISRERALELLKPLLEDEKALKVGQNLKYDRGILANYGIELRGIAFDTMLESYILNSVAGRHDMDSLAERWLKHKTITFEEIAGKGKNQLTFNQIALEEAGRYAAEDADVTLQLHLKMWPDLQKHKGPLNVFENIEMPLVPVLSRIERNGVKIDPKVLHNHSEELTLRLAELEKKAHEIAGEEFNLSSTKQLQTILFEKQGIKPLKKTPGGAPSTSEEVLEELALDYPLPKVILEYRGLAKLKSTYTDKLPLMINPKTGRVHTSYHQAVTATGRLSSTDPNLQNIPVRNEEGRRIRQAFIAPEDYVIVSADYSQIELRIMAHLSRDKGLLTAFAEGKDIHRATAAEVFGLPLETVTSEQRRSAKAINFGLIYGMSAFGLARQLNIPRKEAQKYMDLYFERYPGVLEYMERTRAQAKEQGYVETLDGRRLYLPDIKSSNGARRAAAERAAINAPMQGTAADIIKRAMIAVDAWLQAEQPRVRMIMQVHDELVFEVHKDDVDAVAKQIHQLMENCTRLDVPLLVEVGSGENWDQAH", "experiment": "Template-dependent 3' labelling / primer A extension, polyacrylamide gel", "conditions": "for enzymatic incorporation at 3' end of primer A: MATPP 400, 200, 50 μM, MATPPF 2.5 mM, 400, 200, 50 μM, 37° C., 10 minutes; for interruption of chain elongation after incorporation: with dGTP and dTTP (solution 2P), FIG. 4", "procedure": "as §1, §2, §3, §4, §5, §6, §7, §8, §9, §10"}, "Taq DNA polymerase": {"target": "T3, Taq DNA polymerase (Thermus aquaticus, UniProt P19821)", "T3 construct": "purchased Boehringer Mannheim", "T3 sequence (P19821 whole entry)": "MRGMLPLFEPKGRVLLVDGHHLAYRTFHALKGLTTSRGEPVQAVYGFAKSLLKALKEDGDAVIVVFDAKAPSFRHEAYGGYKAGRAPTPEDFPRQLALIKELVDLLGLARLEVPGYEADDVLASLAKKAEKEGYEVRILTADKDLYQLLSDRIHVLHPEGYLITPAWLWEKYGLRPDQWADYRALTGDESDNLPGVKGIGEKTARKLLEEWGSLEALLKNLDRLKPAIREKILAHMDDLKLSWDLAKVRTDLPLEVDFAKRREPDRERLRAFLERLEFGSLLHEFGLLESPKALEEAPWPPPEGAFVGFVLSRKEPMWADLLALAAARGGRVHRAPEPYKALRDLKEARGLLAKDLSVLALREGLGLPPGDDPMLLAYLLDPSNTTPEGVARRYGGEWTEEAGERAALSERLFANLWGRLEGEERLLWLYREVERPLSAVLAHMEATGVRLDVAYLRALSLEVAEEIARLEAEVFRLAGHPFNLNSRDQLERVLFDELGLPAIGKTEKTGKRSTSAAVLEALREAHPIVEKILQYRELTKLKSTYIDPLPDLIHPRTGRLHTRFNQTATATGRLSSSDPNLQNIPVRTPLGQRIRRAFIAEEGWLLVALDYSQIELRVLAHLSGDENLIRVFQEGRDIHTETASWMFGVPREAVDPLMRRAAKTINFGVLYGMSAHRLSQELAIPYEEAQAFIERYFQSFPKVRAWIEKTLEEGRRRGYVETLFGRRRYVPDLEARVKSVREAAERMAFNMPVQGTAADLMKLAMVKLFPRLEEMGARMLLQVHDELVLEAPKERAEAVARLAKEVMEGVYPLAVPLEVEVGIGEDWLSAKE", "experiment": "Template-dependent 3' labelling / primer A extension, polyacrylamide gel", "conditions": "for enzymatic incorporation at 3' end of primer A: MATPP 400, 200, 50 μM, MATPPF 2.5 mM, 400, 200, 50 μM, 70° C., 10 minutes; for interruption of chain elongation after incorporation: with dGTP and dTTP (solution 2P), FIG. 4", "procedure": "as §1, §2, §3, §4, §5, §6, §7, §8, §9, §10"}, "Taq polyerase": {"target": "T4, Taq polyerase (Thermus aquaticus, UniProt P19821)", "T4 construct": "purchased Perkin-Elmer", "T4 sequence (P19821 whole entry)": "as above", "experiment": "Sequencing reaction with fluorescent primers on Bluescript plasmid DNA (Example 14)", "conditions": "fluorescence detection of the sequencing products", "procedure": "Morpholino A putrescine (MATPP) 7 and morpholino A fluorescein (MATPPF) 12 are tested in squencing reaction with fluorescent primers (Applied Biosystems, Perkin-Elmer, Foster City, Calif., USA) on a standard template which is a Bluescript plasmid DNA (Stratagene, La Jolla, Calif., USA). The enzyme used is a Taq polyerase (Perkin-Elmer) which is used in its buffer (Thermo Sequenase buffer, Amersham Life Science).\nThree sequencing reactions are carried out with MATPP at 100, 200 and 400 μM and four sequencing reactions are carried out with MATPPF at 200, 500, 1000 and 5000 μM, along with control reactions with the dideoxynucleotide ddATP at a concentration of 250 μM (Boehringer).\nThe reaction medium, of a total volume of 10 μL, contains 125 ng of template, 1.25 pmol of fluorescent primer and the other constituents as described in the tables.\nThe medium is subjected to heating cycles in order to produce in number molecules of newly formed DNA strands. […]\nThe amplification products are purified on a Sephadex G50 column. The products of each sequencing reaction are mixed with the products of a control reaction and analysed by electrophoresis. […]"}, "Taq polymerase": {"target": "T5, Taq polymerase (Thermus aquaticus, UniProt P19821)", "T5 construct": "purchased Perkin-Elmer", "T5 sequence (P19821 whole entry)": "as above", "experiment": "Sequencing reaction with fluorescent primers on Bluescript plasmid DNA (Example 13)", "conditions": "200 and 500 μM; Bluescript plasmid template; FIG. 1", "procedure": "The morpholino T glycine 4 of Example 2 is tested in sequence reaction with fluorescent primers (Applied Biosystems, Perkin-Elmer, Foster City, Calif., USA) on a standard template which is a Bluescript plasmid DNA (Stratagene, La Jolla, Calif., USA). The enzyme used is a Taq polymerase (Perkin-Elmer), which is used in its buffer (TACS buffer, Perkin-Elmer).\nTwo reactions are carried out with morpholino T glycine at 200 and 500 μM (Table 4), and also two control reactions (Table 5) with dideoxynucleotide T (Boehringer).\nThe reaction medium, of a total volume of 10 μL, contains 125 ng of template, 1.25 pmol of fluorescent primer and the other constituents given in Tables 4 and 5. The medium is subjected to heat cycles in order to produce in number molecules of newly formed DNA strands. […]\nThe products of the sequencing reactions are detected by fluorescence. The results obtained are represented in the attached figure which illustrates the detection of the products in the sequencing gel analysed by the Perkin-Elmer Analysis software, version 3.0.\nFor each test, the primers are identifiable by their fluorescence properties, the ROX label (red) for the control reaction 250 μm dideoxythymidine triphosphate (dashed-curve) and the label JOE (green) for the reaction concerning the 200 μm morpholino T glycine (solid-line curve)."}}, "data": [{"compound": "4-(aminobutyl)-2-(adenosin-9-yl)-6-(hydroxymethyl)morpholine 6-triphosphate [morpholino A putrescine]", "values": [{"measurement": "enzymatic incorporation at 3' end of primer A", "setting": "[1]", "result": "incorporate"}, {"measurement": "interruption of chain elongation after incorporation", "setting": "[1]", "result": "interruption of the elongation of the chain"}, {"measurement": "enzymatic incorporation at 3' end of primer A", "setting": "Klenow fragment", "result": "incorporate"}, {"measurement": "interruption of chain elongation after incorporation", "setting": "Klenow fragment", "result": "interruption of the elongation of the chain"}, {"measurement": "enzymatic incorporation at 3' end of primer A", "setting": "Taq DNA polymerase", "result": "incorporate"}, {"measurement": "interruption of chain elongation after incorporation", "setting": "Taq DNA polymerase", "result": "interruption of the elongation of the chain"}]}, {"compound": "Nc1ncnc2c1ncn2C1CN(CCCCNC(=S)Nc2ccc3c(c2)C(=O)OC32c3ccc(O)cc3Oc3cc(O)ccc32)CC(COP(=O)(O)OP(=O)(O)OP(=O)(O)O)O1", "note": "(stereo not drawn) [morpholino A fluorescein]", "values": [{"measurement": "detection of sequencing reaction products", "setting": "Taq polyerase", "result": "detected by means of the fluorophore borne by this derivative"}, {"measurement": "enzymatic incorporation at 3' end of primer A", "setting": "[1]", "result": "incorporate"}, {"measurement": "interruption of chain elongation after incorporation", "setting": "[1]", "result": "stops the polymerization of the complementary strand"}, {"measurement": "enzymatic incorporation at 3' end of primer A", "setting": "Klenow fragment", "result": "incorporate"}, {"measurement": "interruption of chain elongation after incorporation", "setting": "Klenow fragment", "result": "stops the polymerization of the complementary strand"}, {"measurement": "enzymatic incorporation at 3' end of primer A", "setting": "Taq DNA polymerase", "result": "incorporate"}, {"measurement": "interruption of chain elongation after incorporation", "setting": "Taq DNA polymerase", "result": "stops the polymerization of the complementary strand"}]}, {"compound": "4-(carboxymethyl)-2-(thymidin-1-yl)-6-(hydroxymethyl)morpholine 6-triphosphate [morpholino T glycine]", "values": [{"measurement": "action as chain terminator in sequencing reaction", "setting": "Taq polymerase", "result": "acts correctly as a chain terminator"}, {"measurement": "incorporation by the Taq polymerase in sequencing reaction", "setting": "Taq polymerase", "result": "correctly incorporated in a base-specific manner"}]}]}
